Columns and labels:
[1] = target: T1, Alpha-2C adrenergic receptor (Homo sapiens, UniProt P18825)
T1 sequence (P18825 whole entry): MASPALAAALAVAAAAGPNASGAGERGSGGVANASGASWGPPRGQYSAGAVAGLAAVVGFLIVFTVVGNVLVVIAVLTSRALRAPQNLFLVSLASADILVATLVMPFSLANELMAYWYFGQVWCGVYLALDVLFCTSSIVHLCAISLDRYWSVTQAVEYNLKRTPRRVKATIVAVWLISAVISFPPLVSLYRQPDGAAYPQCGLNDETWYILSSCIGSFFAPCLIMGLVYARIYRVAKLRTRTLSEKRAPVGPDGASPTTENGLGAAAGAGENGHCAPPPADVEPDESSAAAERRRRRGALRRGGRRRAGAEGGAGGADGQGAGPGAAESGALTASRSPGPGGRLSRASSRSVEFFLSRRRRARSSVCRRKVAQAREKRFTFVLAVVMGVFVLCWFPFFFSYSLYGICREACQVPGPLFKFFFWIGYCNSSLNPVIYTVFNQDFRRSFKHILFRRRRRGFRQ
Description: Activity of compound against Alpha 2C (ADRA2C) adrenergic receptor by displacement of [3H]-rauwolscine

[2] = target: T2, Muscarinic acetylcholine receptor M1 (Homo sapiens, UniProt P11229)
T2 sequence (P11229 whole entry): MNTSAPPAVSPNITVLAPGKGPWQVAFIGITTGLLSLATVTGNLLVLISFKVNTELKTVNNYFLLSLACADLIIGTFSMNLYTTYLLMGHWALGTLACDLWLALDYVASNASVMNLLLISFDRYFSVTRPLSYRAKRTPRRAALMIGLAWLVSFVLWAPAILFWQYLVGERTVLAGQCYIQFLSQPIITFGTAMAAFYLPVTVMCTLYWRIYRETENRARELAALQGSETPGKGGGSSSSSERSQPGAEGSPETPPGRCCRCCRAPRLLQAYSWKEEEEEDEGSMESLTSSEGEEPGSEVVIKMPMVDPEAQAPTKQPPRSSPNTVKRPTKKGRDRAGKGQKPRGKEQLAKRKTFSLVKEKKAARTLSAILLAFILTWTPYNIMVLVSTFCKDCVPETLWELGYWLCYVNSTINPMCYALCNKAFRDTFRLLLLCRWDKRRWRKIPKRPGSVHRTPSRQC

CCCN1CCC=C(c2cc(-c3ccc(C)cc3)no2)C1
Ki [1]: 10 µM
Ki [2]: > 31.6 µM

From ChEMBL document CHEMBL4303773 (Nature, 2020)
